Values of other authors, collected in patent US20130303466A1, “Chemosensory Receptor Ligand-Based Therapies” (ELCELYX THERAPEUTICS, INC., priority 2010, published 2013).

Molecular target: T1, sweet receptor (Homo sapiens, UniProt Q7RTX0+Q8TE23)
T1 sequence (Q8TE23 20-839): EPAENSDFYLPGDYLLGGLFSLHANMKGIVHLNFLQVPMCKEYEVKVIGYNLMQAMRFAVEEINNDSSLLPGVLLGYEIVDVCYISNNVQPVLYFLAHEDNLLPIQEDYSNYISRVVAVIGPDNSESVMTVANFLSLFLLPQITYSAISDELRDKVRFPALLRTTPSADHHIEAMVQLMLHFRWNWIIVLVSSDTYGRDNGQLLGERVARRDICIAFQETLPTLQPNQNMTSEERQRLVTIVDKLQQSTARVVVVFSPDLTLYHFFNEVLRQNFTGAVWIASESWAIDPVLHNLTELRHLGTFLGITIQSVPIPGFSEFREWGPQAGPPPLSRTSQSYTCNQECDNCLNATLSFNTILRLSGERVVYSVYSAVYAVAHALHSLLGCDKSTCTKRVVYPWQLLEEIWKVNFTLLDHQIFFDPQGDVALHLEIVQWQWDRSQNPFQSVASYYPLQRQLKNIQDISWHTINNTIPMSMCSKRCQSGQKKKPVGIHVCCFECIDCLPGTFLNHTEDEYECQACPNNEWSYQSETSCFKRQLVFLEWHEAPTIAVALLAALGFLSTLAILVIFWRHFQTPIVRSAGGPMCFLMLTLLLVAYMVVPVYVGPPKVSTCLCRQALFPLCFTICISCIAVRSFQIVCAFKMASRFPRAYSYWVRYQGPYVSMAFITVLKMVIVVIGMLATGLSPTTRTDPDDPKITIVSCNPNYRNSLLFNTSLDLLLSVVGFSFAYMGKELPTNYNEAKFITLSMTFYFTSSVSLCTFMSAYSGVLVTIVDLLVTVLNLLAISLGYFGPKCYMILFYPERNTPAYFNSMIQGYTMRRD
T1 sequence (Q7RTX0 21-852): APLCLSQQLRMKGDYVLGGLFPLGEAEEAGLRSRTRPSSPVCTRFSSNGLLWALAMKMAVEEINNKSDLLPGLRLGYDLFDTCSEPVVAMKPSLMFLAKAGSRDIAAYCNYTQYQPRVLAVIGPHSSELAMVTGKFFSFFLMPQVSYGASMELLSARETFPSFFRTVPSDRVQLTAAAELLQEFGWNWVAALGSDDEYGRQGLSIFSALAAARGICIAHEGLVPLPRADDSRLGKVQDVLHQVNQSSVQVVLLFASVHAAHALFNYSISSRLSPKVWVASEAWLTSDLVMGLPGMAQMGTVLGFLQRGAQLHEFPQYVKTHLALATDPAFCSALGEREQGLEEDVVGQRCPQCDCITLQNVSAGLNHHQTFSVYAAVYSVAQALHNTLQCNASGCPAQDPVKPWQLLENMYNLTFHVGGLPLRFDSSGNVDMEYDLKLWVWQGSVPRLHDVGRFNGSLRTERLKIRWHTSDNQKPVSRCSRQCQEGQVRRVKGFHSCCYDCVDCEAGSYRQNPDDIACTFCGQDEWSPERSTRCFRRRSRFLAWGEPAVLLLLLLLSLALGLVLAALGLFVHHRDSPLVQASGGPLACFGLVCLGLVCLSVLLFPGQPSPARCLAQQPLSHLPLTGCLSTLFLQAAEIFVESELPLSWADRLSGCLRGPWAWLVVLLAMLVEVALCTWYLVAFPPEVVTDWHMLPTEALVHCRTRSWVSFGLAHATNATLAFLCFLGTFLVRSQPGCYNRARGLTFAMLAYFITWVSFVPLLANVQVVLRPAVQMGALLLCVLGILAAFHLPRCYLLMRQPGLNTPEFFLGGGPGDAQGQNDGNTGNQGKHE
Conditions: relative sweetness on a weight comparison basis to sucrose (= 1.0); ranges: relative sweetness varied with the concentration of sucrose; adapted from Kim et al., 2002

Row | Compound | Sweetness/potency
1 | C=C1C[C@@]23CC[C@H]4[C@@](C)(CCC[C@@]4(C)C(=O)O)[C@@H]2CC[C@]1(O[C@@H]1O[C@H](CO)[C@@H](O)[C@H](O)[C@H]1O[C@@H]1O[C@H](CO)[C@@H](O)[C@H](O)[C@H]1O)C3 [Steviolbioside (22), Steviolbioside] | 90
2 | C=C1C[C@@]23CC[C@H]4[C@@](C)(CCC[C@@]4(C)C(=O)O[C@@H]4O[C@H](CO)[C@@H](O)[C@H](O)[C@H]4O)[C@@H]2CC[C@]1(O[C@@H]1O[C@H](CO)[C@@H](O)[C@H](O)[C@H]1O[C@@H]1O[C@H](CO)[C@@H](O)[C@H](O)[C@H]1O)C3 [Stevioside (5), Stevioside] | 210
3 | CC[C@@H](C)C(=O)O[C@@H](C)[C@]1(O)CC[C@]2(O)[C@@H]3CC[C@H]4C[C@@H](O[C@@H]5C[C@H](O)[C@H](O[C@H]6C[C@H](OC)[C@H](O[C@H]7C[C@@H](OC)[C@H](O[C@H]8C[C@@H](OC)[C@H](O[C@@H]9O[C@H](C)[C@@H](O[C@@H]%10O[C@H](CO)[C@@H](O)[C@H](O)[C@H]%10O)[C@H](OC)[C@H]9O)[C@@H](C)O8)[C@@H](C)O7)[C@@H](C)O6)[C@@H](C)O5)CC[C@]4(C)[C@H]3C[C@@H](OC(C)=O)[C@]12C [Telosmoside A15 (74), Telosmoside A15] | 1000
4 | O=C/C=C/c1ccccc1 [Trans-Cinnamaldehyde (79), Trans-Cinnamaldehyde] | 50
5 | C/C=C/c1ccc(OC)cc1 [trans-Anethole(78), trans-Anethole] | 13
6 | Albiziasaponin B [Albiziasaponin B (51)] | 600
7 | Baiyunoside [Baiyunoside (30)] | 500
8 | Brazzein: sweet protein from Pentadiplandra brazzeana Baillon (QDKCKKVYENYPVSKCQLANQCNYDCKLDKHARSGECFYDEKRNLQCICDYCEY; UniProt P56552 1-54, looked up) | 2,000
9 | Cyclocarioside A [Cyclocarioside A (47)] | 200
10 | Dulcoside A [Dulcoside A (15)] | 30

More lines, now with the values ahead:

Row | Sweetness/potency | Compound
11 | 51 | Carnosifloside V [Carnosifloside V (35)]
12 | 550 | Curculin
13 | 250 | Cyclocaryoside I [Cyclocaryoside I (48)]
14 | 3,000 | Monellin
15 | 500 | Pentadin
16 | 95 | Periandrin II [Periandrin II (58)]
17 | 85 | Periandrin IV [Periandrin IV (60)]
18 | 600 | Polypodoside A [Polypodoside A (65)]
19 | 50 | Pterocaryoside A [Pterocaryoside A (62)]
20 | 150 | Rebaudioside B [Rebaudioside B (16)]
21 | 30 | Rebaudioside C [Rebaudioside C (17)]
22 | 54 | Scandenoside R6 [Scandenoside R6 (39)]
23 | 1,600 | Thaumatin

Tested on: GLP-1
Conditions: rats; with administration of a DPP-IV inhibitor

Row | Compound | increase in GLP-1
24 | OCCN1C[C@H](O)[C@@H](O)[C@H](O)[C@H]1CO [miglitol] | synergistic

Tested on: gut hormone release
Conditions: humans, instillation into the duodenum

Row | Compound | gut hormone release
25 | OC[C@H]1O[C@H](O[C@]2(CCl)O[C@H](CCl)[C@@H](O)[C@@H]2O)[C@H](O)[C@@H](O)[C@H]1Cl [sucralose] | no effect
